Series [1] concerns histone H3 acetylation (lysine 9+14) in HeLa cervical carcinoma cells. Kind of series: Cellular histone H3 acetylation assay. The note with it: Homo sapiens, 24 h incubation with compound, read-out: EC50 (histone H3 acetylating cellular potency). The class given is cell-based. The source says: To assess the cellular efficacy of an histone deactylase inhibitor in vitro, an assay is set up in black clear-bottom 96-well plates and optimized for use on the Cellomics “ArrayScan II” platform for a quantitative calculation of histone acetylation. The protocol uses a polyclonal rabbit antibody, specifically binding to acetylated lysine 9+14 of human histone H3 on fixed cells with an Alexa Fluor 488 labeled goat ant rabbit-IgG used for counterstaining (modified from Braunger et al. MCR annual conference 2003, Abstract 4556).
5×10^3 HeLa cervical carcinoma cells/well (ATCC CCL-2) in 200 μl Dulbecco's modified Eagle's medium (DMEM) containing 10% fetal calf serum are seeded at day 1 in Packard view plates and incubated for 24 h under standard cell culture conditions. On day 2, 2 μl test compound (100× final concentration) is added and incubation continued for further 24 h. On day 3, the culture medium is discarded and attached cells fixed for 15 min at room temperature by addition of 100 μl fixation buffer (3.7% v:v formaldehyde in phosphate buffered saline/PBS). After discarding the fixation buffer and one wash with PBS, cells are permeabilized at room temperature by addition of 100 μl/well permeabilization buffer (30.8 mM NaCl, 0.54 mM Na2HPO4, 0.31 mM KH2PO4, 5% v:v Triton X-100) for 15 min at room temperature. After discarding the permeabilization buffer and washing twice with 100 μl/well blocking solution (PBS with 0.05% v:v Tween 20 and 5% w:v milk powder) at room temperature, the 1st antibody (anti-K9+14 histone H3 antibody, Calbiochem No. 382158) in blocking solution (50 μl/well) is added. After incubation for 1 h at 37° C., the wells are washed twice at room temperature with 100 μl/well blocking solution before addition of the 2nd antibody (goat-anti-rabbit Alexa Fluor 488; MoBiTec No. A-11008) in blocking solution (50 μl/well). After further incubation for 1 h at 37° C., wells are washed twice with 100 μl/well blocking solution room temperature. Finally, 100 d/well PBS are added and image analysis performed on the Cellomics “ArrayScan II” platform. For calculation of EC50 values, the nuclear fluorescence in cells treated with and without a reference HDAC inhibitor (eg NVP-LBH-589) are taken as a positive and negative control. For EC50 determination, the percentage of positive cells is determined and EC50 calculation done from concentration-effect curves by means of non-linear regression.

Series [2] deals with HeLa cervical carcinoma cell line. The experiment in a line: Cellular cytotoxicity assay (Alamar Blue / Resazurin). The class given is cell-based. To be noted: Homo sapiens; HeLa cells, 48 hours incubation; read-out: IC50 (anti-proliferative/cytotoxic potency). Here is the method:
The anti-proliferative activity of the histone deacetylase inhibitory compounds as described herein, is evaluated with the HeLa cervical carcinoma cell line (ATCC CCL2) using the Alamar Blue (Resazurin) cell viability assay (O'Brien et al. Eur J Biochem 267, 5421-5426, 2000). Resazurin is reduced to the fluorescent resorufin by cellular dehydrogenase activity, correlating with viable, proliferating cells. Test compounds are dissolved as 10 mM solutions in dimethylsulfoxide (DMSO) and subsequently diluted in semi-logarithmic steps. HeLa cells are seeded into 96 well flat bottom plates at a density of 3000 cells per well in a volume of 200 μl per well. 24 hours after seeding 1 μl each of the compound dilutions are added into each well of the 96 Well plate. Each compound dilution is tested as quadruplicates. Wells containing untreated control cells are filled with 200 μl DMEM medium containing 0.5% v:v DMSO. The cells are then incubated with the substances for 48 hours at 37° C. in a humidified atmosphere containing 5% carbon dioxide. To determine the viability of the cells, 20 μl of an Resazurin solution (Sigma; 90 mg/l) are added. After 4 hours incubation at 37° C. the fluorescence is measured at an extinction of 544 nm and an emission of 590 nm. For the calculation of the cell viability the emission value from untreated cells is set as 100% viability and the emission rates of treated cells are set in relation to the values of untreated cells. Viabilites are expressed as % values. The corresponding IC50 values of the compounds for cytotoxic activity are determined from the concentration-effect curves by means of non-linear regression.

pEC50, pIC50: −log10 of the molar value.

The pEC50 is the negative decadic logarithm of the EC50, by convention in mol/L. What is called melting point is the temperature, or range, at which the solid turns liquid.

For the molecule `Nc1ccc(-c2ccc(S(=O)(=O)n3ccc(/C=C/C(=O)Nc4ccccc4N)c3)cc2)cn1` [Compound 6, (E)-N-(2-Amino-phenyl)-3-{1-[4-(6-amino-pyridin-3-yl)-benzenesulfonyl]-1H-pyrrol-3-yl}-acrylamide], in series [1], the pEC50 is 5.28 to 6.55. Besides, in series [2], the pIC50 was 5.64 to 7.11.

`Cc1ccc(S(=O)(=O)NC2(S(=O)(=O)n3ccc(/C=C/C(=O)NO)c3)C=CC(c3ccccc3)=CC2)cc1` (stereo not shown) [Compound 29, (E)-N-Hydroxy-3-{1-[4-(toluene-4-sulfonylamino)-biphenyl-4-sulfonyl]-1H-pyrrol-3-yl}-acrylamide] registered a melting point of 119 to 126 °C. Regarding `Cn1ccc2cc(-c3ccc(S(=O)(=O)n4ccc(/C=C/C(=O)NO)c4)cc3)ccc21` [Compound 1, (E)-N-Hydroxy-3-{1-[4-(1-methyl-1H-indol-5-yl)-benzenesulfonyl]-1H-pyrrol-3-yl}-acrylamide], in series [1], the pEC50 was 5.28 to 6.55. In series [2], the pIC50 was 5.64 to 7.11. As for `CN(C)CC1(S(=O)(=O)n2ccc(/C=C/C(=O)Nc3ccccc3N)c2)C=CC(c2ccccc2)=CC1` (stereo not shown) [Compound 47, (E)-N-(2-Amino-phenyl)-3-[1-(4-dimethylaminomethyl-biphenyl-4-sulfonyl)-1H-pyrrol-3-yl]-acrylamide], the melting point lay in the range of 211 to 216 °C.

Regarding `Nc1ccc(-c2ccc(S(=O)(=O)n3ccc(C=CC(=O)NO)c3)cc2)cn1` [Compound 4, (E)-3-∴1-[4-(6-Amino-pyridin-3-yl)-benzenesulfonyl]-1H-pyrrol-3-yl)-N-hydroxy-acrylamide], the pEC50 in series [1] was 5.28 to 6.55. The pIC50 in series [2] is 5.64 to 7.11. As for `Nc1ccc(-c2cccc(S(=O)(=O)n3ccc(/C=C/C(=O)NO)c3)c2)cn1` [Compound 10, (E)-3-{1-[3-(6-Amino-pyridin-3-yl)-benzenesulfonyl]-1H-pyrrol-3-yl}-N-hydroxy-acrylamide], in series [1], the negative logarithm of the EC50 (pEC50) was 5.36 to 7.57. Take `CN(C)Cc1ccc(-c2ccc(S(=O)(=O)n3ccc(/C=C/C(=O)NO)c3)s2)cc1` [Compound 46, (E)-3-{1-[5-(4-Dimethylaminomethyl-phenyl)-thiophene-2-sulfonyl]-1H-pyrrol-3-yl}-N-hydroxy-acrylamide]: in series [1], the pEC50 was 5.36 to 7.57. As for `Cn1cc(-c2cccc(S(=O)(=O)n3ccc(/C=C/C(=O)NO)c3)c2)cn1` [Compound 12, (E)-N-Hydroxy-3-(1-[3-(1-methyl-1H-pyrazol-4-yl)-benzenesulfonyl]-1H-pyrrol-3-yl)-acrylamide], the negative logarithm of the EC50 (pEC50) in series [1] was 5.36 to 7.57. On to `O=C(/C=C/c1ccn(S(=O)(=O)c2ccc(-c3ccc(OCCN4CCOCC4)cc3)s2)c1)NO` [Compound 56, (E)-N-Hydroxy-3-(1-{5-[4-(2-morpholin-4-yl-ethoxy)-phenyl]-thiophene-2-sulfonyl}-1H-pyrrol-3-yl)-acrylamide], for which the negative-log EC50 (pEC50) in series [1] was 5.36 to 7.57. On the same count and under the same terms, in the case of `CS(=O)(=O)Nc1cccc(-c2ccc(S(=O)(=O)n3ccc(/C=C/C(=O)NO)c3)cc2)c1` [Compound 22, (E)-N-hydroxy-3-[1-(3′-methanesulfonylamino-biphenyl-4-sulfonyl)-1H-pyrrol-3-yl]-acrylamide] it was 5.36 to 7.57. Consider `CN1CCN(Cc2ccc(-c3cccc(S(=O)(=O)n4ccc(/C=C/C(=O)NO)c4)c3)cc2)CC1` [Compound 62, (E)-N-Hydroxy-3-{1-[4′-(4-methyl-piperazin-1-ylmethyl)-biphenyl-3-sulfonyl]-1H-pyrrol-3-yl}-acrylamide], for which the pEC50 in series [1] was 5.36 to 7.57. On the same count and under the same terms, in the case of `CN(C)CCNC(=O)c1ccc(-c2ccc(S(=O)(=O)n3ccc(C=CC(=O)NO)c3)cc2)cc1` [Compound 24, 4′-[3-(E)-2-Hydroxycarbamoyl-vinyl)-pyrrole-1-sulfonyl]-biphenyl-4-carboxylic acid (2-dimethylamino-othyl)-amide] it was 5.36 to 7.57. Still for that read-out and setting: next, `O=C(/C=C/c1ccn(S(=O)(=O)c2ccc(-c3ccc(CCN4CCOCC4)cc3)cc2)c1)NO` [Compound 8, (E)-N-Hydroxy-3-{1-[4′-(2-morpholin-4-yl-ethyl)-biphenyl-4-sulfonyl]-1H-pyrrol-3-yl}-acrylamide]: 5.36 to 7.57.

Consider `COc1ccc(-c2ccc(S(=O)(=O)n3ccc(/C=C/C(=O)NO)c3)cc2)cn1` [Compound 3, (E)-N-Hydroxy-3-{1-[4-(6-methoxy-pyridin-3-yl)-benzenesulfonyl]-1H-pyrrol-3-yl}-acrylamide], for which, in series [1], the negative logarithm of the EC50 (pEC50) is 5.28 to 6.55. Moreover, the pIC50 in series [2] was 5.64 to 7.11.

`NCC1(S(=O)(=O)n2ccc(/C=C/C(=O)Nc3ccccc3N)c2)C=CC(c2ccccc2)=CC1` (stereo not shown) [Compound 93, (E)-3-[1-(4-Aminomethyl-biphenyl-4-sulfonyl)-1H-pyrrol-3-yl]-N-(2-amino-phenyl)-acrylamide] returned a melting point of 278 to 280 °C. `CN(C)Cc1ccc(-c2cccc(S(=O)(=O)n3ccc(/C=C/C(=O)NO)c3)c2)cc1` [Compound 37, (E)-3-[1-(4′-Dimethylaminomethyl-biphenyl-3-sulfonyl)-1H-pyrrol-3-yl]-N-hydroxy-acrylamide]: in series [1], the pEC50 is 5.36 to 7.57. The same measure, in the same setting: next, `CN1CCN(c2cc(-c3ccc(S(=O)(=O)n4ccc(/C=C/C(=O)NO)c4)cc3)ccn2)CC1` [Compound 28, (E)-N-Hydroxy-3-(1-{4-[2-(4-methyl-piperazin-1-yl)-pyridin-4-yl]-benzenesulfonyl}-1H-pyrrol-3-yl)-acrylamide]: 5.36 to 7.57. For `COc1ccc(-c2ccc(S(=O)(=O)n3ccc(/C=C/C(=O)Nc4ccccc4N)c3)cc2)cn1` [Compound 5, (E)-N-(2-Amino-phenyl)-3-{1-[4-(6-methoxy-pyridin-3-yl)-benzenesulfonyl]-1H-pyrrol-3-yl}-acrylamide], the negative logarithm of the EC50 (pEC50) in series [1] is 5.28 to 6.55. The pIC50 in series [2] was 5.64 to 7.11.

With `O=C(/C=C/c1ccn(S(=O)(=O)c2ccc(-c3ccc(OCCCN4CCOCC4)cc3)s2)c1)NO` [Compound 57, (E)-N-Hydroxy-3-(1-{5-[4-(3-morpholin-4-yl-propoxy)-phenyl]-thiophene-2-sulfonyl}-1H-pyrrol-3-yl)-acrylamide], the pEC50 in series [1] is 5.36 to 7.57.

Take `Cn1cc(-c2ccc(S(=O)(=O)n3ccc(/C=C/C(=O)NO)c3)cc2)cn1` [Compound 2, (E)-N-Hydroxy-3-{1-[4-(1-methyl-1H-pyrazol-4-yl)-benzenesulfonyl]-1H-pyrrol-3-yl}-acrylamide]: the pEC50 in series [1] is 5.28 to 6.55. The pIC50 in series [2] was 5.64 to 7.11. In the case of `CN(C)Cc1ccc(-c2ccc(S(=O)(=O)n3ccc(/C=C/C(=O)NO)c3)cc2)cc1` [Compound 26, (E)-3-[1-(4′-Dimethylaminomethyl-biphenyl-4-sulfonyl)-1H-pyrrol-3-yl]-N-hydroxy-acrylamide], the negative logarithm of the EC50 (pEC50) in series [1] was 5.36 to 7.57.

For `O=C(/C=C/c1ccn(S(=O)(=O)c2cccc(-c3cccc(CCN4CCOCC4)c3)c2)c1)NO` [Compound 20, (E)-N-Hydroxy-3-{1-[3′-(2-morpholin-4-yl-ethyl)-biphenyl-3-sulfonyl]-1H-pyrrol-3-yl}-acrylamide], in series [1], the pEC50 was 5.36 to 7.57.

As for `Nc1ccc(-c2cccc(S(=O)(=O)n3ccc(/C=C/C(=O)Nc4ccccc4N)c3)c2)cn1` [Compound 17, (E)-N-(2-Amino-phenyl)-3-{1-[3-(6-amino-pyridin-3-yl)-benzenesulfonyl]-1H-pyrrol-3-yl}-acrylamide], the pEC50 in series [1] is 5.36 to 7.57. On to `Cn1cc(-c2ccc(S(=O)(=O)n3ccc(/C=C/C(=O)Nc4ccccc4N)c3)cc2)cn1` [Compound 7, (E)-N-(2-Amino-phenyl)-3-{1-[4-(1-methyl-1H-pyrazol-4-yl)-benzenesulfonyl]-1H-pyrrol-3-yl}-acrylamide], for which the negative-log EC50 (pEC50) in series [1] is 5.28 to 6.55. The pIC50 in series [2] is 5.64 to 7.11.

The values above are taken from US7666868B2, “N-sulphonylpyrroles and their use as histone deacetylase inhibitors” (4SC AG, priority 2005, dated 2010).
